Laboratory results published in patent publication US20230061432A1, “NEW TECHNOLOGY TO CONJUGATE THE TACCALONOLIDE MICROTUBULE STABILIZERS WITH LINKERS/PAYLOADS” (priority 2019, published 2023).

Columns and labels:
HeLa cells = experiment: sulforhodamine B (SRB) antiproliferative assay; type: cell-based, human; details: 48 h; mean ± SEM; read-out: GI50, concentration that causes a 50% decrease in proliferation, HeLa
From the text: (§1) HCC1806 (CRL-2335) and HCC1937 (CRL-2336) human triple-negative breast cancer cells, HeLa (CCL-2) cervical cancer cells and SK-OV-3 (HTB-77) ovarian cancer cells were obtained from ATCC (Manassas, Va.) and validated by STR profiling (Genetica). SK-OV-3 cells stably overexpressing Pgp by adenoviral-mediated expression of MDR1 were obtained from Dr. Susan Kane and subcloned by limiting dilution to isolate the single-cell clones utilized in these studies as SK-OV-3-MDR-1-6/6 (Risinger, A. L. et al. (2008) Cancer Res. 68, 8881-8888). A single-cell clone from transfection of HeLa cells with βIII-tubulin, designated wild type βIII, was constructed and obtained from Dr. Richard Luduena (Risinger, A. L. et al. (2008) Cancer Res. 68, 8881-8888). HCC1806 and HCC1937 cells were cultured in RPMI 1640 media (Corning) with 10% FBS (Cellgro) and 50 μg/mL gentamicin (Gibco). HeLa, […] expressing HeLa, SK-OV-3 and SK-OV-3/MDR-1-6/6 cells were grown in BME media with Earle's salts (Gibco) with 10% FBS, 1× final 1% GlutaMax™ Supplement (Gibco), and […] gentamicin. The use of HeLa cells allows for the direct comparison of the in vitro potency as compared to other compounds of this class, which have been predominantly reported in this line and compound potencies are consistent among three additional cancer cell lines. HeLa cells were also used for ectopic expression of tubulin mutants due to the high degree of transfectability of this cell line. Cells were tested for mycoplasma contamination using the Mycoplasma Detection Kit-Quick Test (Cat: B39032, Lot: JW004).
(§2) The sulforhodamine B (SRB) assay was utilized to examine the antiproliferative and cytotoxic effects of the compounds (Skehan, P. et al. (1990) J. Natl. Cancer Inst. 82, 1107-1112; Vichai and Kirtikara (2006) Nat. Protoc. 1, 1112-1116). Approximately 2,000 cells per well (for SK-OV-3, HeLa and βIII-tubulin expressing HeLa) or 4,000 cells per well (for HCC1806 and HCC1937) were seeded in 96-well plates. For each biological replicate, cells were treated in triplicate with each concentration of compound or vehicle control for 48 h in a final volume of 200 μL. The plates were fixed with 10% trichloroacetic acid for protein precipitation of adherent cells and then washed with distilled water. 100 μL of SRB dye, which binds protein stoichiometrically, was added and then unbound dye removed with 1% acetic acid followed by the addition of 200 μL 10 mM Tris to solubilize the dye, which was quantified by absorbance at 560 nm. The percent growth of treated cells relative to the density at the time of drug addiction was calculated as compared to vehicle treated cells.

SK-OV-3 cells = experiment: sulforhodamine B (SRB) antiproliferative assay; type: cell-based, human; details: 48 h; mean ± SEM; read-out: GI50, concentration that causes a 50% decrease in proliferation, SK-OV-3
From the text: as §1, §2

[1] = target: T1, purified porcine brain tubulin (Sus scrofa, UniProt P02554); experiment: biochemical tubulin polymerization assay; details: tubulin 20 μM
T1 construct: purified porcine brain tubulin (Cytoskeleton); purchased Cytoskeleton; host or cells: porcine brain
Protocol: Exemplary results of the […] tubulin polymerization assay are illustrated in FIG. 3, FIG. 4B, and FIG. 5B and were obtained as described in Risinger et al., Cancer Research, 2013.
Biochemical tubulin polymerization assays were performed using purified porcine brain tubulin (Cytoskeleton). In individual wells of a 96-well plate, 1 μL of each 100× drug stock was incubated with 20 μM porcine brain tubulin in GPEM glycerol buffer (1 mM GTP, 10% glycerol, 80 mM PIPES pH 6.9, 2 mM MgCl2 and 0.5 mM EGTA) in a final volume of 100 μL. Pure porcine tubulin was prepared on ice at 4° C. to inhibit tubulin polymerization until the assay was initiated, while the plate reader was pre-warmed to 37° C. Tubulin polymerization was measured every minute for an hour by light scattering at 340 nm in a Spectramax plate reader using SoftMax software (Molecular Devices). Light scattering was normalized to the initial measurement for each well. For the probe-tubulin binding assay, samples were prepared on ice in tubes instead of a 96 well plate, and moved to a 37° C. heat block to initiate binding and polymerization. The time zero (0′) sample consisted of tubulin polymerization buffer prior to addition of taccalonolide probe. […]

T1 sequence (P02554 whole entry): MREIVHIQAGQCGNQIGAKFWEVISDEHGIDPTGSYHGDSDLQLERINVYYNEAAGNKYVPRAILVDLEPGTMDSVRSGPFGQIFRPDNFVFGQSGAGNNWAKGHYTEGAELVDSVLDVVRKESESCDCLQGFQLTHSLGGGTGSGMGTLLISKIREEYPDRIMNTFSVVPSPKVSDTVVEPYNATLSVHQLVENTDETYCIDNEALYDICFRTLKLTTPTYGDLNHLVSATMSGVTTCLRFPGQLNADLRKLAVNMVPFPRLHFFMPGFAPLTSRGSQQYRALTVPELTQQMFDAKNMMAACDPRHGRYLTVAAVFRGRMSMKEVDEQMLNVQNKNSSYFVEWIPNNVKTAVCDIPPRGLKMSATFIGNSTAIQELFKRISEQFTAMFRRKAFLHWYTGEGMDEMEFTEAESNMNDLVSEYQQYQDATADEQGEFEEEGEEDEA
T1 sequence (P02550 whole entry partner): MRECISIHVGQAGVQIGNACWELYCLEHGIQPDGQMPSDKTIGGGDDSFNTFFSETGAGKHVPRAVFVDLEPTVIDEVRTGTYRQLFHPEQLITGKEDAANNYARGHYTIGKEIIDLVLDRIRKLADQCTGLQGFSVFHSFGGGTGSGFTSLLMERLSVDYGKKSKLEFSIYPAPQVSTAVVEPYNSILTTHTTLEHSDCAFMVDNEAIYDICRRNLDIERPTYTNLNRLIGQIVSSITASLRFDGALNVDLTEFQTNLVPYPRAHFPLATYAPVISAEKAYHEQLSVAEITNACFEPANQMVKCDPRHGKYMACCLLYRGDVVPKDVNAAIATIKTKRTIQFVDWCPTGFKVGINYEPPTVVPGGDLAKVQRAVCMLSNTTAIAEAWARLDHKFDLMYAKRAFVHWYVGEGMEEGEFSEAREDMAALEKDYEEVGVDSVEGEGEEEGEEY

`CC(=O)O[C@H]1[C@H]2[C@H]([C@@H]3[C@@H](O)[C@@H]4[C@H]([C@H](C)[C@@H]5O[C@@]56OC(=O)[C@@](C)(O)[C@]46C)[C@@]3(C)[C@H]1OC(C)=O)[C@@H](O)C(=O)[C@H]1C[C@@H]3O[C@@H]3[C@H](OC(C)=O)[C@]21C` [compound 2, taccalonolide AJ, reference compound] was tested, and the GI50 (HeLa cells) was 8.5 nM, the GI50 (SK-OV-3 cells) was 6.2 nM and the “concentration range promoting polymerization of purified tubulin” value [1] was 5 to 20 µM.
